Tests used:
VEGFR-2 = biological target: T1, VEGFR-2 (Homo sapiens, UniProt P35968); test: In vitro kinase assay, VEGFR-2; type: biochemical
T1 construct: purchased Millipore UK Ltd., Dundee, UK (now Eurofins Scientific); KinaseProfiler / IC50 Profiler service
Description: (§1) All kinase assays were carried out using KinaseProfiler^TM and IC50 Profiler^TM (Millipore UK Ltd., Dundee, UK. Now Eurofins Scientific, Dundee, UK). All IC50 data were presented as the mean values. The Curves obtained to determine IC50 values were shown in Supporting Information (S1 Fig).

CaMKIIβ (h) = biological target: T2, CaMKIIβ (h) (Homo sapiens, UniProt Q13554); test: Kinase profile, CaMKIIβ; type: biochemical; settings: mean ± S.D.
T2 construct: purchased Millipore (now Eurofins) KinaseProfiler / IC50 Profiler
Description: as §1

CaMKIV (h) = biological target: T3, CaMKIV (h) (Homo sapiens, UniProt Q16566); test: Kinase profile, CaMKIV; type: biochemical; settings: mean ± S.D.
T3 construct: purchased Millipore (now Eurofins) KinaseProfiler / IC50 Profiler
Description: as §1

FLT3 (h) = biological target: T4, FLT3 (h) (Homo sapiens, UniProt P36888); test: Kinase profile, FLT3; type: biochemical; settings: mean ± S.D.
T4 construct: purchased Millipore (now Eurofins) KinaseProfiler / IC50 Profiler
Description: as §1

GSK3β (h) = biological target: T5, GSK3β (h) (Homo sapiens, UniProt P49841); test: Kinase profile, GSK3β; type: biochemical; settings: mean ± S.D.
T5 construct: purchased Millipore (now Eurofins) KinaseProfiler / IC50 Profiler
Description: as §1

p70S6K (h) = biological target: T6, p70S6K (h) (Homo sapiens, UniProt P23443); test: Kinase profile, p70S6K; type: biochemical; settings: mean ± S.D.
T6 construct: purchased Millipore (now Eurofins) KinaseProfiler / IC50 Profiler
Description: as §1

PKA (h) = biological target: T7, PKA (h) (Homo sapiens, UniProt P17612); test: Kinase profile, PKA; type: biochemical; settings: mean ± S.D.
T7 construct: purchased Millipore (now Eurofins) KinaseProfiler / IC50 Profiler
Description: as §1

PKCγ (h) = biological target: T8, PKCγ (h) (Homo sapiens, UniProt P05129); test: Kinase profile, PKCγ; type: biochemical; settings: mean ± S.D.
T8 construct: purchased Millipore (now Eurofins) KinaseProfiler / IC50 Profiler
Description: as §1

PKCη (h) = biological target: T9, PKCη (h) (Homo sapiens, UniProt P24723); test: Kinase profile, PKCη; type: biochemical; settings: mean ± S.D.
T9 construct: purchased Millipore (now Eurofins) KinaseProfiler / IC50 Profiler
Description: as §1

PKCθ (h) = biological target: T10, PKCθ (h) (Homo sapiens, UniProt Q04759); test: Kinase profile, PKCθ; type: biochemical; settings: mean ± S.D.
T10 construct: purchased Millipore (now Eurofins) KinaseProfiler / IC50 Profiler
Description: as §1

HCC827 cells = test: HCC827 cell viability assay; type: cell-based; settings: Homo sapiens, 72 h, read-out: HCC827 IC50 (anti-proliferative activity)
Description: HCC827 cells were purchased from the American Type Culture Collection (ATCC, Manassas, VA, USA). […] Human umbilical vein endothelial cells (HUVECs, ScienCell Research Laboratories, Carlsbad, CA, USA) were cultured in endothelial growth medium-2 (EGM-2; Lonza, Walkersville, MD, USA) from passages 3 to 6.
After a 24-hour incubation, the cells were treated with a series of test compound dilutions for 72 hours. Cell viability was assessed using EZ-Cytox (Daeil Lab Service, Seoul, South Korea) according to the manufacturer’s instructions.
Cells were incubated for 72 h with a range of concentrations of MKP101, and cell viability was measured using the WST-1 assay. […] Western blot analysis using antibodies to phosphorylated and total EGFR from a representative experiment is shown. Cells were incubated for 3 h at the indicated concentration. (C) Graph showing the relative intensities of the total and phosphorylated EGFR as determined by band densitometry. IC50, half-maximal inhibitory concentration.

HUVECs [1] = test: VEGF-induced endothelial proliferation assay; type: cell-based, human; settings: VEGF 50 ng/mL, compound 1 μg/mL
Description: (§2) For the cell proliferation assays, cells were incubated overnight in endothelial basal media (EBM; Lonza, Walkersville, MD, USA) containing 0.5% FBS or supplemented with VEGF-A and/or VEGF inhibitors. The cells were washed with PBS and counted in 4 random microscope fields. The tube formation assay was performed by seeding cells on Matrigel-coated plates (BD Bioscience, Bedford, MA, USA) and incubating in EBM containing 0.5% FBS or supplemented with VEGF-A and/or VEGF inhibitors. After overnight incubation, tubule networks were quantified by measuring the tubule length in 4 random microscope fields. For the analysis of scratch wound migration, confluent cell monolayers grown on 6-well plates were scratched using a micropipette tip. After the plates were washed with PBS to remove dislodged cells and media, they were incubated with EBM containing 0.5% FBS or supplemented with VEGF and/or VEGF inhibitors for 8 hours. Cell migration was observed by optical microscopy and quantified by measuring the number of cells that had migrated from the wound edges.

HUVECs [2] = test: VEGF-induced scratch wound migration assay; type: cell-based, human; settings: VEGF 50 ng/mL, compound 0.5 μg/mL, 8 hours
Description: as §2

T1 sequence (P35968 20-1356): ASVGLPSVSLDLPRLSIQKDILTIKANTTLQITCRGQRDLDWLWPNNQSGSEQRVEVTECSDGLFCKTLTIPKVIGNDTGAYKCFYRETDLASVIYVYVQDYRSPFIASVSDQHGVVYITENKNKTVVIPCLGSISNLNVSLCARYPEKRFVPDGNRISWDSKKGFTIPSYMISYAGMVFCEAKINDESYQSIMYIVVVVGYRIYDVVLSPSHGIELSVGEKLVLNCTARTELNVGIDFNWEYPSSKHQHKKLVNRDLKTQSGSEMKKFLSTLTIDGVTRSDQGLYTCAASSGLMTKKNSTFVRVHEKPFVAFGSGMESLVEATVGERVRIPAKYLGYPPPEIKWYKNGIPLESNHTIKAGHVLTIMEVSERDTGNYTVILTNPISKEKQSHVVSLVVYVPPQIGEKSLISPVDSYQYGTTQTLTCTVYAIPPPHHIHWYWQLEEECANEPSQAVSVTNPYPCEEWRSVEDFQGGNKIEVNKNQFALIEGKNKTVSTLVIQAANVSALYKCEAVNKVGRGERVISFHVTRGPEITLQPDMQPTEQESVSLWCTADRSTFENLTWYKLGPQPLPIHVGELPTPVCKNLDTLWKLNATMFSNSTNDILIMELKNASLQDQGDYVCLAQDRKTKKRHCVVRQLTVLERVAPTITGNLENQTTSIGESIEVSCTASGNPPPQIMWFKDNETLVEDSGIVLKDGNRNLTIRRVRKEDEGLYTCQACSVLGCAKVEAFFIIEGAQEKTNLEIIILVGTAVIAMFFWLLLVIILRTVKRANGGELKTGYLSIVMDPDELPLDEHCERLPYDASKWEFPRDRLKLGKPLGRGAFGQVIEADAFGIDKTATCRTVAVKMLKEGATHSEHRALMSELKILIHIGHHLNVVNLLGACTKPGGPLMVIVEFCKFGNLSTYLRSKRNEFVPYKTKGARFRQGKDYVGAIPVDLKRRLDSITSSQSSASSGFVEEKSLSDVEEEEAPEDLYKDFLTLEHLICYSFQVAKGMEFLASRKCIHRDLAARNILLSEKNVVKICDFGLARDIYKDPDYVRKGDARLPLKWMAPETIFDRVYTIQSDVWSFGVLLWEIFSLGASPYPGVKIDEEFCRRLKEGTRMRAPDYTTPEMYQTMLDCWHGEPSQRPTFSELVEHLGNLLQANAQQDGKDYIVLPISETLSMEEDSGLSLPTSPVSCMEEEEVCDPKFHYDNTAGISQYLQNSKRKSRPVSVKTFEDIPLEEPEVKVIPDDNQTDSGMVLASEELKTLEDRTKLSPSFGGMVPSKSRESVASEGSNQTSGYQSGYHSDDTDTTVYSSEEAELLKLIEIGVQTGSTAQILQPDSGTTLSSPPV
T5 sequence (P49841 whole entry): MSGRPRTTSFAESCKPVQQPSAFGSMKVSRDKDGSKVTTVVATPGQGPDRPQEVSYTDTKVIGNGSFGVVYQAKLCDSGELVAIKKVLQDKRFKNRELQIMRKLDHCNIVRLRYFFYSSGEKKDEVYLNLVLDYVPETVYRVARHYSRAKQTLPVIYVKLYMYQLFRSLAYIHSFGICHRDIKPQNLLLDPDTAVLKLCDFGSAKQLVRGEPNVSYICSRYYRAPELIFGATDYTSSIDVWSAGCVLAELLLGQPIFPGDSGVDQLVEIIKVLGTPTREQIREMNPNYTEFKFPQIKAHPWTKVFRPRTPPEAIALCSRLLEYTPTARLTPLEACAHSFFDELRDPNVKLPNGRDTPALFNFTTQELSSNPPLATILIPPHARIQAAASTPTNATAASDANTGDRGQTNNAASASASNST
T4 sequence (P36888 27-993): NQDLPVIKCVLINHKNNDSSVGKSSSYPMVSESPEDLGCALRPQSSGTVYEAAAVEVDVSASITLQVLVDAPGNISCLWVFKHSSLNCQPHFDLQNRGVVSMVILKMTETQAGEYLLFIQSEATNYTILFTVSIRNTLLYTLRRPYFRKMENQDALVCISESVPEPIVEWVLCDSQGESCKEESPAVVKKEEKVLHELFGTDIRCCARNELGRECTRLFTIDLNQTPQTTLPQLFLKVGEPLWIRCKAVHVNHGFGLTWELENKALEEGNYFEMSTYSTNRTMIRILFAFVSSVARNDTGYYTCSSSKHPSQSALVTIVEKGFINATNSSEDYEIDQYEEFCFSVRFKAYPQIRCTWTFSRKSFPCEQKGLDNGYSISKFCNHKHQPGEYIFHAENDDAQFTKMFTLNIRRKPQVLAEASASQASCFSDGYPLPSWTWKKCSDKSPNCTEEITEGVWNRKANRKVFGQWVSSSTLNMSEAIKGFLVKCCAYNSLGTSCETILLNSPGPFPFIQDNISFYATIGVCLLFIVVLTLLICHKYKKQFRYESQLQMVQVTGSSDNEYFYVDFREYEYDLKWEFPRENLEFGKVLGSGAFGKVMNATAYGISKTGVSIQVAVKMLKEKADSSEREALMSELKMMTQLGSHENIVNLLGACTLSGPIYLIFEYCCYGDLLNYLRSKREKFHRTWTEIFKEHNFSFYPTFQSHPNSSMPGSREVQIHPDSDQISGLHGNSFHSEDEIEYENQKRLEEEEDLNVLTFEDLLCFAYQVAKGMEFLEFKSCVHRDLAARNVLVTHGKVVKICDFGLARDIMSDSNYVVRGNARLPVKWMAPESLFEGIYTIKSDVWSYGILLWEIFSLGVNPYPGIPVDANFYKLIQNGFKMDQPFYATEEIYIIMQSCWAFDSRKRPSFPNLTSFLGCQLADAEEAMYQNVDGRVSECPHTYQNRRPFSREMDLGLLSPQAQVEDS
T2 sequence (Q13554 whole entry): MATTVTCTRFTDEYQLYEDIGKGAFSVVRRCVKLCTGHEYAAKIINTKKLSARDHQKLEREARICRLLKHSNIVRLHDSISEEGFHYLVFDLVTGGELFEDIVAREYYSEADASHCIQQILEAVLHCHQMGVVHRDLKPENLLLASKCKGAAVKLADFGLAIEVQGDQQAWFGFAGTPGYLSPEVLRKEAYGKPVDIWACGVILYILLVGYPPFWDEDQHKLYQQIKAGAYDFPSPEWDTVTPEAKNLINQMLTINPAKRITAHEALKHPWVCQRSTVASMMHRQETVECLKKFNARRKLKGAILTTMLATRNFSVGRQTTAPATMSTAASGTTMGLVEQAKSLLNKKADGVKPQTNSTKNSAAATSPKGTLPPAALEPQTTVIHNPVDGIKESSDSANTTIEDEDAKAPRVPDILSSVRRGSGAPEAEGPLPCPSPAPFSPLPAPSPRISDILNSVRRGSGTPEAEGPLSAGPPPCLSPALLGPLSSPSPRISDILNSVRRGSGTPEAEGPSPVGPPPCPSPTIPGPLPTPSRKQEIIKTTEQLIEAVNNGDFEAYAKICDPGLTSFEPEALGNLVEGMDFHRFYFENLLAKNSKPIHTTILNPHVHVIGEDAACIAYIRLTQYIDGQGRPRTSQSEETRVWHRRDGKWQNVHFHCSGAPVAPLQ
T10 sequence (Q04759 whole entry): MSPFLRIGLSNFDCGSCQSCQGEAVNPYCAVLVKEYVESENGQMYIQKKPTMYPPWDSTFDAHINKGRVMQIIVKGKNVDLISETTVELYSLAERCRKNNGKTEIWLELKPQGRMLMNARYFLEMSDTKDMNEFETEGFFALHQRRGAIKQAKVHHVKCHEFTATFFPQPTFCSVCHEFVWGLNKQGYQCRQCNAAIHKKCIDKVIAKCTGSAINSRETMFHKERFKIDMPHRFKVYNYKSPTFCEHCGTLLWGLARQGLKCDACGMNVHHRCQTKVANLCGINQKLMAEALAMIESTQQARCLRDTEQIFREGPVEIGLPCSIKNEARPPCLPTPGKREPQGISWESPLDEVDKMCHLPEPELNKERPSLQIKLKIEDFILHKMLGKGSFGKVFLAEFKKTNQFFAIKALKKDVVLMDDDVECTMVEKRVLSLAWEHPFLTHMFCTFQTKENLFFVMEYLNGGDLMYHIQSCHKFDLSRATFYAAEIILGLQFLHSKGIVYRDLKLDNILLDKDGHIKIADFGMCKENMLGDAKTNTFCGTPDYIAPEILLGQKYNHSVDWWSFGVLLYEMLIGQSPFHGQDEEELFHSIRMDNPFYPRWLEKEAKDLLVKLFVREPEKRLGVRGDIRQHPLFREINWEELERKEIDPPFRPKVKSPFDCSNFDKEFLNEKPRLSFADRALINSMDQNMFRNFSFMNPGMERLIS

- inhibition at 1 µM (VEGFR-2; 1 μM, mean ± S.D., read-out: % inhibition at 1 μM, VEGFR-2 (h)): 94 ± 2%
- IC50 (VEGFR-2; in vitro kinase assay): 32 nM
- inhibition at 1 µM (CaMKIIβ (h)): 17 ± 4%
- inhibition at 1 µM (CaMKIV (h)): 0%
- inhibition at 1 µM (FLT3 (h)): 91 ± 1%
- inhibition at 1 µM (GSK3β (h)): 18 ± 4%
- inhibition at 1 µM (p70S6K (h)): 20 ± 3%
- inhibition at 1 µM (PKA (h)): 7 ± 6%
- inhibition at 1 µM (PKCγ (h)): 12 ± 2%
- inhibition at 1 µM (PKCη (h)): 0%
- inhibition at 1 µM (PKCθ (h)): 16 ± 2%
- IC50 (HCC827 cells): 160 nM
SMILES: Cc1ccc(Nc2nccc(N(C)c3ccc4[nH]ccc4c3)n2)cc1S(N)(=O)=O [MKP101]
- Effect on VEGF-induced increase in endothelial proliferation (HUVECs [1]): significantly inhibited
- Effect on VEGF-induced increase in migration (HUVECs [2]): significantly inhibited

From article PMC4581874 (PLoS ONE, 2015)
